Reference: US10730826B2, “Ketone inhibitors of lysine gingipain” (CORTEXYME, INC., priority 2016, dated 2020)
Values belong to the compound of their own block, whether it stands above or below them.

Columns and labels:
lysine gingipain (Kgp) [1] = molecular target: lysine gingipain (Kgp) (Porphyromonas gingivalis (Bacteroides gingivalis), UniProt P72194); assay: biochemical; assay type: biochemical
Description: (§1) The specific assay conditions were as follows. Buffer: pH=7.5, 100 mM Tris-HCl, 75 mM NaCl, 2.5 mM CaCl2), 10 mM cysteine, 1% DMSO after all additions. Protein: 0.1 nM Kgp, isolated from culture of Porphyromonas gingivalis, as described by Pike et al. (J. Biol. Chem. 1994, 269(1), 406), and Potempa and Nguyen (Current Protocols in Protein Science. 2007, 21.20.1-21.20.27). Fluorogenic substrate: 10 μM Z-His-Glu-Lys-MCA. Time=90 minutes. Temperature=37° C.
(§2) Further assays to measure the inhibitory activity of compounds of the present invention against Kgp and cathepsins B, H, K, L, and S were conducted as described in Example 66. The capacities of the compounds to inhibit the activity of cathepsins F, V, and Z were also measured.

Cathepsin S = Cathepsin S (Homo sapiens (Human), UniProt P25774); assay: Cathepsin S inhibition assay; assay type: biochemical; conditions: Table 3; read-out: IC50 (nM) CatS
Description: (§3) The capacities of compounds of the present invention to inhibit the activity of cathepsins B, H, K, L, and S were measured in similar assays. Boc-Leu-Arg-Arg-AMC (20 μM) in sodium acetate buffer (50 mM, pH 5.5) containing DTT (1 mM) and EDTA (2 mM) was used for the Cathepsin B assay. L-Arg-AMC (20 μM) in sodium acetate buffer (50 mM, pH 5.5) containing DTT (1 mM) and EDTA (2 mM) was used for the Cathepsin H assay. Z-Phe-Arg-AMC (10 μM) in HEPES buffer (50 mM, pH 7.4) containing DTT (2.5 mM) and EDTA (1 mM) was used for the Cathepsin K assay. Z-Phe-Arg-AMC (20 μM) in sodium acetate buffer (50 mM, pH 5.5) containing DTT (1 mM) and EDTA (2 mM) was used for the Cathepsin L assay. Z-Leu-Arg-AMC (10 μM) in sodium acetate buffer (25 mM, pH 4.5) containing DTT (2.5 mM) and NaCl (50 mM) was used for the Cathepsin S assay. The capacities of the compounds to inhibit the activity of cathepsins F, V, and Z were also measured.
as §2

Cathepsin L = Cathepsin L (Homo sapiens (Human), UniProt P07711); assay: Cathepsin L inhibition assay; assay type: biochemical; conditions: Table 3; read-out: IC50 (nM) CatL
Description: as §3, §2

Cathepsin B = Cathepsin B (Homo sapiens (Human), UniProt P07858); assay: Cathepsin B inhibition assay; assay type: biochemical; conditions: Table 3; read-out: IC50 (nM) CatB
Description: as §3, §2

Cathepsin K = Cathepsin K (Homo sapiens (Human), UniProt P43235); assay: Cathepsin K inhibition assay; assay type: biochemical; conditions: Table 3; read-out: IC50 (nM) CatK
Description: as §3, §2

[2] = Pharmacokinetics in male CD-1 mice dosed p.o.; assay type: in vivo; conditions: p.o. 10 mg/kg, compared to reference compound 73
lysine gingipain (Kgp) [3] = assay: biochemical; assay type: biochemical, Porphyromonas gingivalis; conditions: as compared to reference compound 73
Description: as §1, §2

Compound: COC(C)(C)C(=O)NC(CCCCN)C(=O)COc1ccon1 (stereo not shown) [Compound 57a]
- IC50 (lysine gingipain (Kgp) [1]; IC50 (nM) Kgp, Table 4): 0.09 nM

Compound: NCCCCC(NC(=O)c1ccncc1)C(=O)COc1c(F)ccc(F)c1F (stereo not shown) [Compound 52a]
- IC50 (lysine gingipain (Kgp) [1]; IC50 (nM) Kgp, Table 4): 0.06 nM

Compound: NCCCCC(NC(=O)C1CCCC1)C(=O)COc1cc(F)ccc1F (stereo not shown) [Compound 6a]
- IC50 (Cathepsin S): 42800 nM
- IC50 (Cathepsin L): > 100000 nM
- IC50 (lysine gingipain (Kgp) [1]; IC50 (nM) Kgp, Table 3): 0.19 nM
- IC50 (Cathepsin B): 20300 nM
- IC50 (Cathepsin K): > 100000 nM

Compound: NCCCCC(NC(=O)C1CCCC1)C(=O)COc1ccccc1F (stereo not shown) [Compound 3a]
- IC50 (Cathepsin S): > 100000 nM
- IC50 (Cathepsin L): > 100000 nM
- IC50 (lysine gingipain (Kgp) [1]; IC50 (nM) Kgp, Table 3): 0.64 nM
- IC50 (Cathepsin B): 52200 nM
- IC50 (Cathepsin K): > 100000 nM

Compound: NCCCCC(NC(=O)c1ccc(F)cc1)C(=O)COc1c(F)cccc1F (stereo not shown) [Compound 35a]
- IC50 (lysine gingipain (Kgp) [1]; IC50 (nM) Kgp, Table 4): 0.1 nM

Compound: NCCCCC(NC(=O)c1cccnc1)C(=O)COc1c(F)ccc(F)c1F (stereo not shown) [Compound 42a]
- IC50 (lysine gingipain (Kgp) [1]; IC50 (nM) Kgp, Table 4): 0.06 nM

Compound: CS(C)(=O)=CC(=O)C(CCCCN)NC(=O)C1CCCC1 (stereo not shown) [Compound 58a]
- IC50 (lysine gingipain (Kgp) [1]; IC50 (nM) Kgp, Table 4): 4.66 nM

Compound: CS(=O)(=O)CC(=O)C(CCCCN)NC(=O)C1CCCC1 (stereo not shown) [Compound 20a]
- IC50 (lysine gingipain (Kgp) [1]; IC50 (nM) Kgp, Table 3): > 100 nM

Compound: NCCCCC(NC(=O)c1cccc(F)n1)C(=O)COc1c(F)cccc1F (stereo not shown) [Compound 28a]
- IC50 (lysine gingipain (Kgp) [1]; IC50 (nM) Kgp, Table 4): 0.34 nM

Compound: NCCCCC(NC(=O)c1ccccc1)C(=O)C(F)F (stereo not shown) [Compound 37a]
- IC50 (lysine gingipain (Kgp) [1]; IC50 (nM) Kgp, Table 4): > 100 nM

Compound: COC(C)(C)C(=O)NC(CCCCN)C(=O)COc1cccnc1 (stereo not shown) [Compound 64a]
- IC50 (lysine gingipain (Kgp) [1]; IC50 (nM) Kgp, Table 4): 0.4 nM

Compound: C[N+](C)(C)c1ccc(C(=O)NC(CCCCN)C(=O)COc2ccon2)cn1 (stereo not shown) [Compound 61a]
- IC50 (lysine gingipain (Kgp) [1]; IC50 (nM) Kgp, Table 4): 0.43 nM

Compound: CN(C)c1ccc(/N=N/c2ccc(C(=O)NCc3cc(F)c(OCC(=O)C(CCCCN)NC(=O)c4cccc(N=[N+]=[N-])c4)c(F)c3)cc2)cc1 (stereo not shown) [Compound 44a]
- IC50 (lysine gingipain (Kgp) [1]; IC50 (nM) Kgp, Table 4): 3.04 nM
- IC50 (lysine gingipain (Kgp) [1]; Kgp IC50 (nM), Table 5, probe compounds): 3 nM

Compound: NCCCC[C@H](NC(=O)C1CCCC1)C(=O)COc1ccon1 [Compound 49, (S)—N-(7-amino-1-(isoxazol-3-yloxy)-2-oxoheptan-3-yl)cyclopentanecarboxamide]
- concentrations in the brain and cerebrospinal fluid (CSF) [2]: reduced concentrations in the brain and/or cerebrospinal fluid

Compound: NCCCCC(NC(=O)c1cccnc1F)C(=O)COc1ccon1 (stereo not shown) [Compound 56a]
- IC50 (lysine gingipain (Kgp) [1]; IC50 (nM) Kgp, Table 4): 0.1 nM

Compound: NCCCCC(NC(=O)c1cccnc1Br)C(=O)COc1c(F)cccc1F (stereo not shown) [Compound 34a]
- IC50 (lysine gingipain (Kgp) [1]; IC50 (nM) Kgp, Table 4): 0.13 nM

- oral availability [2]: improved oral availability
- plasma concentrations [2]: increased plasma concentrations
Compound: COC(C)(C)C(=O)N[C@@H](CCCCN)C(=O)COc1c(F)cccc1F [Compound 48, (S)—N-(7-amino-1-(2,6-difluorophenoxy)-2-oxoheptan-3-yl)-2-methoxy-2-methylpropanamide]

Compound: NCCCCC(NC(=O)c1cccc(OCCF)c1)C(=O)COc1c(F)cccc1F (stereo not shown) [Compound 27a]
- IC50 (lysine gingipain (Kgp) [1]; IC50 (nM) Kgp, Table 4): 0.27 nM

Compound: COC(C)(C)C(=O)NC(CCCCN)C(=O)COc1cnc(C)nc1 (stereo not shown) [Compound 65a]
- IC50 (lysine gingipain (Kgp) [1]; IC50 (nM) Kgp, Table 4): 0.16 nM

Compound: NCCCC[C@H](NC(=O)c1ccc(F)nc1)C(=O)COc1ccon1 [Compound 55, (S)—N-(7-amino-1-(isoxazol-3-yloxy)-2-oxoheptan-3-yl)-6-fluoronicotinamide]
- selectivity for Kgp over endogenous cathepsins (lysine gingipain (Kgp) [3]): far more selective

Compound: NCCCCC(NC(=O)C1CCCC1)C(=O)COc1cccc(F)c1F (stereo not shown) [Compound 5a]
- IC50 (Cathepsin S): > 100000 nM
- IC50 (Cathepsin L): > 100000 nM
- IC50 (lysine gingipain (Kgp) [1]; IC50 (nM) Kgp, Table 3): 0.15 nM
- IC50 (Cathepsin B): 21500 nM
- IC50 (Cathepsin K): > 100000 nM

Compound: NCCCC[C@H](NC(=O)C1CCCC1)C(=O)COc1cccc(F)c1 [Compound 7, (S)—N-(7-amino-1-(3-fluorophenoxy)-2-oxoheptan-3-yl)cyclopentanecarboxamide]
- selectivity for Kgp over endogenous cathepsins (lysine gingipain (Kgp) [3]): increased selectivity

Compound: NCCCCC(NC(=O)c1cccc(F)c1)C(=O)COc1c(F)cccc1F (stereo not shown) [Compound 26a]
- IC50 (lysine gingipain (Kgp) [1]; IC50 (nM) Kgp, Table 4): 0.09 nM
